Results: patent EP2325159A1, “Novel salts of rasagiline” (LEK Pharmaceuticals d.d., priority 2009, dated 2011)

What was measured:
[1] = Solubility of rasagiline salts in water measured using Crystal16 (Avantium Technologies)
physchem = conditions: water, Solubility of rasagiline salts in water

C#CCN[C@@H]1CCc2ccccc21 [L-tartrate, Rasagiline L-tartrate, reference compound]
solubility [1]: < 30 mg/mL

C#CCN[C@@H]1CCc2ccccc21 [L-mandelate, Rasagiline L-mandelate]
solubility ([1]; Solubility of rasagiline salts in water, 25 °C, H2O): 70 mg/mL
solubility ([1]; Solubility of rasagiline salts in water, 40 °C, H2O): 100 mg/mL

C#CCN[C@@H]1CCc2ccccc21 [(+)-camphor-10-sulfonate, Rasagiline (+)-camphor-10-sulfonate]
Solubility of rasagiline salts in water: 175 mg/mL
solubility (physchem): 113 mg/mL
